Test results taken from PubChem BioAssay (NCI).
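Tested at 5 concentrations; 48 h exposure; 96-well plates; endpoints linearly interpolated, else capped at highest concentration. TGI denotes the concentration required for complete inhibition of growth.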

Key:
Assay in all cases: NCI anticancer screen, dose series, 48 h
[1] = tested on: 786-0 renal
[2] = tested on: A498 renal
[3] = tested on: A549 NSCLC
[4] = tested on: ACHN renal
[5] = tested on: CAKI-1 renal
[6] = tested on: CCRF-CEM leukemia
[7] = tested on: COLO 205 colon
[8] = tested on: DLD-1 colon
[9] = tested on: DMS 114 small cell lung
[10] = tested on: DMS 273 small cell lung
[11] = tested on: EKVX NSCLC
[12] = tested on: HCC-2998 colon
[13] = tested on: HCT-116 colon
[14] = tested on: HCT-15 colon
[15] = tested on: HL-60(TB) leukemia
[16] = tested on: HOP-18 NSCLC
[17] = tested on: HOP-62 NSCLC
[18] = tested on: HOP-92 NSCLC
[19] = tested on: HT29 colon
[20] = tested on: IGROV1 ovarian
[21] = tested on: K-562 leukemia
[22] = tested on: KM12 colon
[23] = tested on: KM20L2 colon
[24] = tested on: LOX IMVI melanoma
[25] = tested on: LXFL 529 NSCLC
[26] = tested on: M14 melanoma
[27] = tested on: M19-MEL melanoma
[28] = tested on: MALME-3M melanoma
[29] = tested on: MOLT-4 leukemia
[30] = tested on: NCI-H226 lung
[31] = tested on: NCI-H23 lung
[32] = tested on: NCI-H460 lung
[33] = tested on: NCI-H522 lung
[34] = tested on: OVCAR-3 ovarian
[35] = tested on: OVCAR-4 ovarian
[36] = tested on: OVCAR-5 ovarian
[37] = tested on: OVCAR-8 ovarian
[38] = tested on: RPMI-8226 leukemia
[39] = tested on: RXF 393 renal
[40] = tested on: SF-268 CNS
[41] = tested on: SF-295 CNS
[42] = tested on: SF-539 CNS
[43] = tested on: SK-MEL-2 melanoma
[44] = tested on: SK-MEL-28 melanoma
[45] = tested on: SK-MEL-5 melanoma
[46] = tested on: SK-OV-3 ovarian
[47] = tested on: SN12C renal
[48] = tested on: SNB-19 CNS
[49] = tested on: SNB-75 CNS
[50] = tested on: SNB-78 CNS
[51] = tested on: SW-620 colon
[52] = tested on: TK-10 renal
[53] = tested on: U251 CNS
[54] = tested on: UACC-257 melanoma
[55] = tested on: UACC-62 melanoma
[56] = tested on: UO-31 renal
[57] = tested on: BT-549 breast
[58] = tested on: DU-145 prostate
[59] = tested on: HS 578T breast
[60] = tested on: MCF7 breast
[61] = tested on: MDA-MB-231 breast
[62] = tested on: MDA-MB-435
[63] = tested on: MDA-N
[64] = tested on: NCI/ADR-RES ovarian
[65] = tested on: PC-3 prostate
[66] = tested on: SR leukemia
[67] = tested on: T-47D breast

For `CC(C)N(C(=O)C12CC3CC(CC(C3)C1)C2)C(C)C`, the TGI [1] was > 50 µM, the TGI [2] was > 50 µM and the TGI [3] was > 50 µM. The TGI [4] was > 50 µM, the TGI [5] was > 50 µM and the TGI [6] was > 50 µM. For the same molecule, the TGI [7] was > 50 µM, the TGI [8] was > 50 µM and the TGI [9] was > 50 µM. For the same molecule, the TGI [10] was > 50 µM, the TGI [11] was > 50 µM and the TGI [12] was > 50 µM. For the same molecule, the TGI [13] was > 50 µM, the TGI [14] was > 50 µM and the TGI [15] was > 50 µM. For the same molecule, the TGI [16] was > 50 µM, the TGI [17] was > 50 µM and the TGI [18] was > 50 µM. The TGI [19] was > 50 µM, the TGI [20] was > 50 µM and the TGI [21] was > 50 µM. For the same molecule, the TGI [22] was > 50 µM, the TGI [23] was > 50 µM and the TGI [24] was > 50 µM. The TGI [25] was > 50 µM, the TGI [26] was > 50 µM and the TGI [27] was > 50 µM. The TGI [28] was > 50 µM, the TGI [29] was > 50 µM and the TGI [30] was > 50 µM. The TGI [31] was > 50 µM, the TGI [32] was > 50 µM and the TGI [33] was > 50 µM. The TGI [34] was > 50 µM, the TGI [35] was > 50 µM and the TGI [36] was > 50 µM. For the same molecule, the TGI [37] was > 50 µM, the TGI [38] was > 50 µM and the TGI [39] was > 50 µM. For the same molecule, the TGI [40] was > 50 µM, the TGI [41] was > 50 µM and the TGI [42] was > 50 µM. The TGI [43] was > 50 µM, the TGI [44] was > 50 µM and the TGI [45] was > 50 µM. For the same molecule, the TGI [46] was > 50 µM, the TGI [47] was > 50 µM and the TGI [48] was > 50 µM. For the same molecule, the TGI [49] was > 50 µM, the TGI [50] was > 50 µM and the TGI [51] was > 50 µM. For the same molecule, the TGI [52] was > 50 µM, the TGI [53] was > 50 µM and the TGI [54] was > 50 µM. For the same molecule, the TGI [55] was > 50 µM and the TGI [56] was > 50 µM.

In the case of `COC(=O)C1C2OC(C)(C)OC2CN1S(=O)(=O)c1ccc(C)cc1` (stereo not given), the TGI [1] is reported as > 100 µM, the TGI [2] is reported as > 100 µM and the TGI [3] is reported as > 100 µM. For the same molecule, the TGI [4] was > 100 µM, the TGI [57] was > 100 µM and the TGI [5] was > 100 µM. The TGI [6] was > 100 µM, the TGI [7] was > 100 µM and the TGI [58] was > 100 µM. For the same molecule, the TGI [11] was > 100 µM, the TGI [12] was > 100 µM and the TGI [13] was > 100 µM. For the same molecule, the TGI [14] was > 100 µM, the TGI [15] was > 100 µM and the TGI [17] was > 100 µM. For the same molecule, the TGI [18] was > 100 µM, the TGI [59] was > 100 µM and the TGI [19] was > 100 µM. The TGI [20] was > 100 µM, the TGI [21] was > 100 µM and the TGI [22] was > 100 µM. The TGI [24] was > 100 µM, the TGI [26] was > 100 µM and the TGI [28] was > 100 µM. For the same molecule, the TGI [60] was > 100 µM, the TGI [61] was > 100 µM and the TGI [62] was > 100 µM. The TGI [63] was > 100 µM, the TGI [29] was > 100 µM and the TGI [30] was 41.1 µM. For the same molecule, the TGI [31] was > 100 µM, the TGI [32] was > 100 µM and the TGI [33] was > 100 µM. The TGI [64] was > 100 µM, the TGI [34] was > 100 µM and the TGI [35] was > 100 µM. For the same molecule, the TGI [36] was > 100 µM, the TGI [37] was > 100 µM and the TGI [65] was > 100 µM. For the same molecule, the TGI [38] was > 100 µM, the TGI [39] was > 100 µM and the TGI [40] was > 100 µM. The TGI [41] was > 100 µM, the TGI [42] was > 100 µM and the TGI [43] was > 100 µM. For the same molecule, the TGI [44] was > 100 µM, the TGI [45] was > 100 µM and the TGI [46] was > 100 µM. For the same molecule, the TGI [47] was > 100 µM, the TGI [48] was > 100 µM and the TGI [49] was > 100 µM. For the same molecule, the TGI [66] was > 100 µM, the TGI [51] was > 100 µM and the TGI [67] was > 100 µM. For the same molecule, the TGI [52] was > 100 µM, the TGI [53] was > 100 µM and the TGI [54] was > 100 µM. The TGI [55] was > 100 µM and the TGI [56] was > 100 µM.
